Reference: patent US20080119483A1, “COMPOSITIONS AND METHODS FOR INHIBITING PROTOZOAN GROWTH” (priority 2006, published 2008)
Entries after “also recorded” stand apart in the source; their conditions may differ. Read-outs that look alike come from different tables or passages of the source.

Legend:
[1] = test system: L. major spt2^− promastigotes; assay: Detergent resistant membrane fractions (insoluble GP63), spt2^− promastigotes; type: cell-based, Leishmania major
Method: (§1) Detergent resistant membrane fractions (DRMs) were prepared using Triton X-100 from L. major promastigotes as previously described [Zhang, et al., 2003. Such DRMs are usually enriched for raft-associated materials and have been used to characterize rafts [London, et al., 2000; Brown, et al., 1998]. A typical marker for a raft in Leishmania parasites is GP63, a GPI-anchored metalloprotease, which can be detected from DRM samples by western-blot [Zhang, et al., 2003].
(§2) Here WT and spt2^− parasites were grown in various concentrations of ITZ (0.001 nM to 1 μM) or CLT (10 nM to 5 μM). Effects of ITZ and CLT on growth, sterol composition and DRM were analyzed after 48 hours. Basically, culture densities were determined using a particle counter and drugs' effects on growth were assessed in comparison to control cells (no drug); sterol lipids were extracted and analyzed by GC/MS and the percentage of 14-methylfecosterol (among all detectable sterol lipids) was used to reflect changes in sterol composition (see Table 2). […]
(§3) Detergent resistant membrane fractions (DRMs) were isolated and a western blot with a monoclonal antibody again Leishmania GP63 #235 was performed as previously described [Zhang, et al., 2003]. Percentages of GP63 in soluble and insoluble fraction after extractions at 4° C. were determined using a Fuji FLA5000 phosphoimager.

[2] = test system: L. major spt2^− promastigotes; assay: Composition of free sterols by GC/MS, spt2^− promastigotes; type: cell-based, Leishmania major; details: 48 hours
Method: (§4) Log phase L. major LV39 WT and spt2^− promastigotes were grown in the presence or absence of ITZ or CLT. Culture densities were determined 48 hours later and total lipids were extracted and the composition of free sterols was determined by GC/MS as described in Materials and Methods. ND: not detectable. Each experiment was repeated at least 3 times and results from one representative set were shown.
(§5) Here WT and spt2^− parasites were grown in various concentrations of ITZ (0.001 nM to 1 μM) or CLT (10 nM to 5 μM). Effects of ITZ and CLT on growth, sterol composition and DRM were analyzed after 48 hours. Basically, culture densities were determined using a particle counter and drugs' effects on growth were assessed in comparison to control cells (no drug); sterol lipids were extracted and analyzed by GC/MS and the percentage of 14-methylfecosterol (among all detectable sterol lipids) was used to reflect changes in sterol composition (see Table 2). DRMs were also isolated and the percentage of GP63 that were insoluble at 4° C. was used as an indicator for the integrity of DRM (see FIG. 2). Two to four independent experiments were performed and the averaged results were plotted in FIG. 3.
(§6) Total lipids were extracted using the Folch's method [Folch, et al., 1957]. Briefly, promastigotes were harvested by centrifugation and washed once with PBS. Pellets were resuspended in chloroform:methanol (2:1) at 1.0×10^8 cells/ml with the addition of cholesta-3,5-diene (Sigma-Aldrich, FW 368.7) at 0.5 mg/10^8 cells (6.6×10^7/cell). After vortexing for 30 s, cell debris was removed by centrifugation (1000 g for 10 min) and samples were washed with 0.2 volume of 0.9% NaCl. After centrifugation, supernatants were removed and the organic phase solutions were dried under a stream of nitrogen. Samples were then dissolved in chloroform:methanol (1:2) at 1.0×10^9 cells/ml.
(§7) Electron impact gas chromatography/mass spectrometry (GC/MS) analyses of sterol lipids were performed on a Finnigan (San Jose, Calif.) SSQ-7000 single-stage quadrupole mass spectrometer with a Varian (Walnut Creek, Calif.) 3400 GC, which is controlled by Finnigan ICIS software operated on a DEC alpha station. The extracts in solution […] were injected in a splitless mode and analyzed by GC on a Restek (Bellefonte, Pa.) RTX-5 column (15 m, 0.33 mm id, […]). The initial temperature of GC was set at 80° C. for 1 min, increased to 220° C. at a rate of 50° C./min, and then raised to a final temperature of 280° C. at a rate of 10° C./min. The temperatures of the injector, transfer line of the GC column, and of the ion-source were set at 280° C., 280° C., and 240° C., respectively. The full scan mass spectra (50 to 500 Dalton) were acquired at a rate of 1 scan/0.25 Sec.

[3] = test system: L. major LV39 WT promastigotes; assay: Composition of free sterols by GC/MS, WT promastigotes; type: cell-based, Leishmania major; details: 48 hours
Method: as §4, §5, §6, §7

[4] = test system: L. major spt2^− promastigotes; assay: microbe, parasite or virus in culture; type: cell-based, Leishmania major; details: for EC50: Leishmania major, 48 h, read-out: EC50 in spt2^−; for EC50 (WT)/EC50 (spt2^−): ratio
Method: (§8) Log phase L. major LV39 WT and spt2 promastigotes were inoculated at 1.0×10^5 cells/ml and culture densities were determined 48 hours later.
(§9) Wild type (WT) L. major LV39 clone 5 (Rho/SU/59/P), FV1 (MOHM/IL/80/Friedlin virulent clone 1), spt2^− (Δspt2::HYG/Dspt2::PAC), ads1^− (Δads1::HYG/Dads1::SAT), and spt2^−/+SPT2 (Δspt2::HYG/Dspt2::PAC/+pXG-SPT2) cells were grown in M199 with 10% FBS and supplements as described [Zhang, et al., 2003; Kapler, et al., 1990]. For growth inhibition assays, promastigotes were inoculated at 1.0×10^5 cells/ml (in T25 flasks, 5 ml of medium per flask) in various concentrations of drugs. All cultures contained equivalent amount of DMSO or methanol (0.1% or less, from drug stocks). After 48 or 96 (for ads1^− only) hours, culture densities were determined using a Coulter counter (Z1, Beckman) and effects of drugs on growth were assessed in relative to cultures grown in the absence of drugs.

[5] = test system: L. major LV39 WT promastigotes; assay: microbe, parasite or virus in culture; type: cell-based, Leishmania major; details: for EC50: Leishmania major
Method: as §8, §9
A classical isobologram was constructed by plotting EC50s of drugs either alone or in combination.

[6] = test system: L. major LV39 WT promastigotes; assay: Detergent resistant membrane fractions (insoluble GP63), WT promastigotes; type: cell-based, Leishmania major
Method: as §1, §2, §3

[7] = test system: L. major ads1^− promastigotes; assay: Growth inhibition assay, EPL-null ads1^− mutant versus FV1 WT; type: cell-based, Leishmania major; details: 96 hours for ads1^−
Method: as §9

[8] = test system: Leishmania amastigotes growing in murine macrophages; assay: Amastigotes growing in murine macrophages; type: cell-based; details: preliminary results, data not shown
[9] = test system: L. major spt2^− promastigotes; assay: Flagellar localization of FcaBP-HA (immunofluorescence), spt2^− promastigotes; type: cell-based, Leishmania major; details: concentration 5˜10 times of EC50 for 20 hours, data not shown
[10] = 48 h, LV39 WT promastigotes, 48 hours, read-out: EC50 in WT

CCC(C)n1ncn(-c2ccc(N3CCN(c4ccc(OCC5COC(Cn6cncn6)(c6ccc(Cl)cc6Cl)O5)cc4)CC3)cc2)c1=O (centres unmarked) [Itraconazole]
ITZ concentration causing significant reduction of insoluble GP63 at 4° C. ([1]; spt2^− parasites): higher than 1 nM
GP63 in DRM ([1]; spt2^−, 1˜10 nM ITZ, 4° C., 45˜50% in control cells): 24˜28%
5-dehydroepisterol (%) ([2]; spt2^− + 1 nM ITZ): 3.7%
14-methylfecosterol (%) ([2]; spt2^− + 1 nM ITZ): 59.4%
Cholesterol (%) ([2]; spt2^− + 1 nM ITZ): 22.0%
Episterol (%) ([2]; spt2^− + 1 nM ITZ): 1.6%
Ergosterol (%) ([2]; spt2^− + 1 nM ITZ): 13.2%
Lanosterol (%) ([2]; spt2^− + 1 nM ITZ): 0.1%
Total sterols/cell ([2]; spt2^− + 1 nM ITZ): 4.0 × 10^8 /cell
5-dehydroepisterol (%) ([2]; spt2^− + 5 nM ITZ): 2.1%
14-methylfecosterol (%) ([2]; spt2^− + 5 nM ITZ): 75.2%
Cholesterol (%) ([2]; spt2^− + 5 nM ITZ): 17.1%
Episterol (%) ([2]; spt2^− + 5 nM ITZ): 0.4%
Ergosterol (%) ([2]; spt2^− + 5 nM ITZ): 4.0%
Lanosterol (%) ([2]; spt2^− + 5 nM ITZ): 1.2%
Total sterols/cell ([2]; spt2^− + 5 nM ITZ): 4.4 × 10^8 /cell
endogenous sterols ([2]; spt2^−, 1˜10 nM ITZ): 4˜6%
5-dehydroepisterol (%) ([3]; WT + 1 nM ITZ): 9.6%
14-methylfecosterol (%) ([3]; WT + 1 nM ITZ): 62.3%
Cholesterol (%) ([3]; WT + 1 nM ITZ): 2.9%
Episterol (%) ([3]; WT + 1 nM ITZ): 0.9%
Ergosterol (%) ([3]; WT + 1 nM ITZ): 24.3%
Total sterols/cell ([3]; WT + 1 nM ITZ): 2.0 × 10^8 /cell
5-dehydroepisterol (%) ([3]; WT + 5 nM ITZ): 1.7%
14-methylfecosterol (%) ([3]; WT + 5 nM ITZ): 92.2%
Cholesterol (%) ([3]; WT + 5 nM ITZ): 3.2%
Ergosterol (%) ([3]; WT + 5 nM ITZ): 2.9%
Total sterols/cell ([3]; WT + 5 nM ITZ): 3.3 × 10^8 /cell
14-methylfecosterol among all sterols ([3]; WT, 1˜10 nM ITZ): 80˜92%
endogenous sterols ([3]; WT, 1˜10 nM ITZ): 4˜6%
EC50 [4]: 3.9 nM
EC50 (WT)/EC50 (spt2^−) [4]: 282
Growth (%) ([4]; spt2^− + 1 nM ITZ, 48 hours): 64.6%
Growth (%) ([4]; spt2^− + 5 nM ITZ, 48 hours): 29.4%
proliferation, % of control ([4]; spt2^−, 1˜10 nM ITZ, 48 hours): 28˜67%
EC50 [5, 10]: ~1100 nM
EC50 ([5]; LV39 WT grown in the presence of 10 μM MYR, read-out: EC50 for ITZ in WT + 10 μM myriocin): ~4.6 nM
EC50 ([5]; read-out: EC50 of ITZ in combination with 25 μM MYR): 0.92 nM
EC50 ([5]; read-out: EC50 of ITZ in combination with […] MYR): 131 nM
Growth (%) ([5]; WT + 1 nM ITZ, 48 hours): 91.5%
Growth (%) ([5]; WT + 5 nM ITZ, 48 hours): 81.6%
growth, % of control ([5]; WT, 1˜10 nM ITZ, 48 hours): 75˜95%
ITZ concentration significantly inhibiting growth and DRM stability in WT ([6]; WT parasites): more than 100 nM
GP63 in DRM ([6]; WT, 1˜10 nM ITZ, 4° C., 50˜55% in control cells): 40˜55%

CCCCCCC(=O)CCCCCC/C=C/C[C@@H](O)[C@H](O)[C@@](N)(CO)C(=O)O [MYR, myriocin]
Sensitivity of ads1^− mutant in comparison to FV1 WT [7]: hypersensitive
EC50 [5, 10]: ~55000 nM
EC50 ([5]; LV39 WT, 750 nM ITZ, read-out: EC50 of MYR in combination with 750 nM ITZ): 1500 nM
EC50 ([5]; read-out: EC50 for MYR in the presence of 0.5 μM ITZ, LV39 WT, 500 nM ITZ): ~1800 nM
EC50 ([5]; read-out: EC50 of MYR in combination with 250 nM ITZ, LV39 WT, 250 nM ITZ): 2200 nM
Effect of MYR on the efficacy of ITZ on amastigotes [8]: does not improve the efficacy of ITZ

CN(C/C=C/C#CC(C)(C)C)Cc1cccc2ccccc12 [Terbinafine]
Sensitivity of ads1^− mutant in comparison to FV1 WT [7]: very similar EC50s; also recorded: little or no selectivity
EC50 [4]: 3300 nM
EC50 (WT)/EC50 (spt2^−) [4]: 1.3
Selectivity against spt2^− parasites (in words) ([4]; spt2^− versus LV39 WT): did not cause the extreme hypersensitivity
EC50 [5, 10]: 4300 nM
Mislocalization of FcaBP-HA [9]: did not show such defect
